pIC50: −log10 of the molar value.

Test [1] has as its system PMA-differentiated THP-1 cells. As to the kind of experiment: hTHP-1 assay containing 10% fetal bovine serum (IL-1β production, Tables B5 and B6). Type of test: cell-based, human. On the procedure: The following protocol is suitable for testing the activity of the compounds disclosed herein. Procedure 1: IL-1β Production in PMA-Differentiated THP-1 Cells Stimulated with Gramicidin.
THP-1 cells were purchased from the American Type Culture Collection and sub-cultured according to instructions from the supplier. Cells were cultured in complete RPMI 1640 (containing 10% heat inactivated FBS, penicillin (100 units/ml) and streptomycin (100 μg/ml)), and maintained in log phase prior to experimental setup. Prior to the experiment, compounds were dissolved in dimethyl sulfoxide (DMSO) to generate a 30 mM stock. The compound stock was first pre-diluted in DMSO to 3, 0.34, 0.042 and 0.0083 mM intermediate concentrations and subsequently spotted using Echo550 liquid handler into an empty 384-well assay plate to achieve desired final concentration (e.g. 100, 33, 11, 3.7, 1.2, 0.41, 0.14, 0.046, 0.015, 0.0051, 0.0017 μM). DMSO was backfilled in the plate to achieve a final DMSO assay concentration of 0.37%. The plate was then sealed and stored at room temperature until required.
THP-1 cells were treated with PMA (Phorbol 12-myristate 13-acetate) (20 ng/ml) for 16-18 hours. On the day of the experiment the media was removed and adherent cells were detached with trypsin for 5 minutes. […] The cells were plated in the 384-well assay plate containing the spotted compounds at a density of 50,000 cells/well (final assay volume 50 μl). Cells were incubated with compounds for 1 hour and then stimulated with gramicidin (5 μM) (Enzo) for 2 hours. Plates were then centrifuged at 340 g for 5 min. Cell free supernatant (40 μL) was collected using a 96—CHannel PlateMaster (Gilson) and the production of IL-1β was evaluated by HTRF (cisbio). The plates were incubated for 18 h at 4° C. and read using the preset HTRF program (donor emission at 620 nm, acceptor emission at 668 nm) of the SpectraMax i3x spectrophotometer (Molecular Devices, software SoftMax 6). A vehicle only control and a dose titration of CRID3 (100-0.0017 μM) were run concurrently with each experiment.
Procedure 2: IL-1β Production in PMA-Differentiated THP-1 Cells Stimulated with Gramicidin.
THP-1 cells were purchased from the American Type Culture Collection and sub-cultured according to instructions from the supplier. Prior to experiments, cells were cultured in complete RPMI 1640 (containing 10% heat inactivated FBS, penicillin (100 units/ml) and streptomycin (100 μg/ml)), and maintained in log phase prior to experimental setup. Prior to the experiment THP-1 were treated with PMA (Phorbol 12-myristate 13-acetate) (20 ng/ml) for 16-18 hours. Compounds were dissolved in dimethyl sulfoxide (DMSO) to generate a 30mM stock. On the day of the experiment the media was removed and adherent cells were detached with trypsin for 5 minutes. […] The cells were plated in a 384-well plate at a density of 50,000 cells/well (final assay volume […]). Compounds were first dissolved in assay medium to obtain a 5× top concentration of 500 μM. 10 step dilutions (1:3) were then undertaken in assay medium containing 1.67% DMSO. 5× compound solutions were added to the culture medium to achieve desired final concentration (e.g. 100, 33, 11, 3.7, 1.2, 0.41, 0.14, 0.046, 0.015, 0.0051, 0.0017 μM). Final DMSO concentration was at 0.37%. Cells were incubated with compounds for 1 hour and then stimulated with gramicidin (5 μM) (Enzo) for 2 hours. Plates were then centrifuged at 340 g for 5 min. Cell free supernatant (40 μL) was collected using a 96—CHannel PlateMaster (Gilson) and the production of IL-1β was evaluated by HTRF (cisbio). A vehicle only control and a dose titration of CRID3 (100-0.0017 μM) were run concurrently with each experiment.
Tables B1, B2, B3, and B4 show the biological activity of compounds in hTHP-1 assay containing 2% fetal bovine serum. […] Key: <0.008 μM=“++++++”; ≥0.008 and <0.04 μM=“+++++”; >0.04 and <0.2 μM=“++++”; ≥0.2 and <1 μM=“+++”; ≥1 and <5 μM=“++”; ≥5 and <30 μM=“+”. […]

The test system of test [2] is PMA-differentiated THP-1 cells. The experiment in a line: IL-1β production in PMA-differentiated THP-1 cells stimulated with gramicidin (hTHP-1 assay containing 2% fetal bovine serum; Procedures 1 and 2). It is filed as cell-based, human. To be noted: Homo sapiens, THP-1, Table B2; 2% fetal bovine serum; class symbols; read-out: hTHP-1 IC50. A digest of the protocol: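 Human monocytic THP-1 cells, matured overnight with PMA at 20 ng/ml, are seeded in low-serum (2% FBS) RPMI. Test compounds, at final concentrations from 100 down to 0.0017 μM, precede gramicidin (5 μM, 2 h) by one hour. Released IL-1β is then determined by HTRF.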

Where [3] appears, read: Homo sapiens, THP-1, read-out: hTHP-1 IC50 in 10% FBS, hTHP-1 assay containing 10% fetal bovine serum, Table B5.

On to `Cc1c(C(F)(F)F)nc2c(c1NC(=O)N=S(N)(=O)c1nn(C(C)(F)F)cc1F)CCC2` (stereo not drawn) [Compound 1004, 1-(1,1-Difluoroethyl)-4-fluoro-N′-((3-methyl-2-(trifluoromethyl)-6,7-dihydro-5H-cyclopenta [b]pyridin-4-yl)carbamoyl)-1H-pyrazole-3-sulfonimidamide], for which the pIC50 (commonly the negative decadic logarithm of the IC50, by convention in mol/L) in test [1] (setting [3]) is 6.00 to 6.70. In the case of `CC(C)(O)c1csc(S(N)(=O)=NC(=O)Nc2c3c(nc(C4CC4)c2C2CC2)CCC3)c1F` (single isomer, unassigned) [Compound 1106a, (R) or (S)-N′-((2,3-dicyclopropyl-6,7-dihydro-5H-cyclopenta[b]pyridin-4-yl)carbamoyl)-3-fluoro-4-(2-hydroxypropan-2-yl)thiophene-2-sulfonimidamide], the negative-log IC50 (pIC50) in test [1] (read-out: hTHP-1 IC50 in 10% FBS, hTHP-1 assay containing 10% fetal bovine serum, Table B5, listed as 830) is 6.70 to 7.40. Turning to `CC(F)(F)n1cc(F)c(S(N)(=O)=NC(=O)Nc2c3c(nc4c2CCC4)CCC3)n1` (single isomer, unassigned) [Compound 1115b, (S) or (R)-1-(1,1-difluoroethyl)-4-fluoro-N′-((1,2,3,5,6,7-hexa-hydrodicyclopenta[b,e]pyridin-8-yl)carbamoyl)-1H-pyrazole-3-sulfonimidamide], in test [1] (read-out: hTHP-1 IC50 in 10% FBS, hTHP-1 assay containing 10% fetal bovine serum, Table B5, listed as 847), the negative logarithm of the IC50 (pIC50) was 4.52 to 5.30. Turning to `Cc1c(C(F)(F)F)nc2c(c1NC(=O)N=S(N)(=O)c1cnc(C(F)F)s1)CCC2` (single isomer, unassigned) [Compound 1007b, (S) or (R)-2-(Difluoromethyl)-N′-((3-methyl-2-(trifluoromethyl)-6,7-dihydro-5H-cyclopenta[b]pyridin-4-yl)carbamoyl)thiazole-5-sulfonimidamide], the negative logarithm of the IC50 (pIC50) in test [1] (read-out: hTHP-1 IC50 in 10% FBS, hTHP-1 assay containing 10% fetal bovine serum, Table B5, listed as 828) was 4.52 to 5.30. Regarding `CC(C)n1cc(F)c(S(N)(=O)=NC(=O)Nc2c3c(nc(C(F)(F)F)c2C2CC2)CCC3)n1` (single isomer, unassigned) [Compound 1104b, (S) or (R)-N′-((3-cyclopropyl-2-(trifluoromethyl)-6,7-dihydro-5H-cyclopenta[b]pyridin-4-yl)carbamoyl)-4-fluoro-1-isopropyl-1H-pyrazole-3-sulfonimidamide], in test [1] (read-out: hTHP-1 IC50 in 10% FBS, hTHP-1 assay containing 10% fetal bovine serum, Table B5, listed as 827), the negative logarithm of the IC50 (pIC50) is 5.30 to 6.00. `Cc1c(C(F)(F)F)nc2c(c1NC(=O)N=S(N)(=O)c1nn(C3CC3)cc1F)CCC2` (stereo not drawn) [Compound 1114, 1-Cyclopropyl-4-fluoro-N′-((3-methyl-2-(trifluoromethyl)-6,7-dihydro-5H-cyclopenta [b]pyridin-4-yl)carbamoyl)-1H-pyrazole-3-sulfonimidamide]: the negative logarithm of the IC50 (pIC50) in test [1] (setting [3]) is 6.70 to 7.40.

Consider `CCn1cc(F)c(S(N)(=O)=NC(=O)Nc2c3c(nc(C)c2C(F)(F)F)CCC3)n1` (stereo not drawn) [Compound 1012, 1-Ethyl-4-fluoro-N′-((2-methyl-3-(trifluoromethyl)-6,7-dihydro-5H-cyclopenta[b]pyridin-4-yl)carbamoyl)-1H-pyrazole-3-sulfonimidamide], for which, in test [1] (setting [3]), the negative-log IC50 (pIC50) is 6.70 to 7.40. As to `Cc1nc2c(c(NC(=O)N=S(N)(=O)c3scc(C(C)(C)O)c3F)c1-c1ccccc1)CCC2` (single isomer, unassigned) [Compound 1110a, (S) or (R)-3-fluoro-4-(2-hydroxypropan-2-yl)-N′-((2-methyl-3-phenyl-6,7-dihydro-5H-cyclopenta[b]pyridin-4-yl)carbamoyl)thiophene-2-sulfonimidamide], the pIC50 in test [1] (read-out: hTHP-1 IC50 in 10% FBS, hTHP-1 assay containing 10% fetal bovine serum, Table B5, listed as 844) was 6.00 to 6.70. With `NS(=O)(=NC(=O)Nc1c2c(nc3c1CCC31CC1)CCC2)c1ccn(C2CC2)n1` (stereo not drawn) [Example 861, 1-Cyclopropyl-N′-((1′,5′,6′,7′-tetrahydro-2′H-spiro[cyclopropane-1,3′-dicyclopenta[b,e]pyridin]-8′-yl)carbamoyl)-1H-pyrazole-3-sulfonimidamide], the negative-log IC50 (pIC50) in test [1] (Homo sapiens, THP-1, read-out: hTHP-1 IC50 in 10% FBS, hTHP-1 assay containing 10% fetal bovine serum, Table B6) is 6.70 to 7.40. For `CC(C)(O)c1csc(S(N)(=O)=NC(=O)Nc2c3c(nc(C(F)(F)F)c2C2CC2)CCC3)c1F` (single isomer, unassigned) [Compound 1105b, (S) or (R)-N′-((3-cyclopropyl-2-(trifluoromethyl)-6,7-dihydro-5H-cyclopenta[b]pyridin-4-yl)carbamoyl)-3-fluoro-4-(2-hydroxypropan-2-yl)thiophene-2-sulfonimidamide], the pIC50 in test [1] (read-out: hTHP-1 IC50 in 10% FBS, hTHP-1 assay containing 10% fetal bovine serum, Table B5, listed as 835) is 6.00 to 6.70. Consider `CC(F)(F)n1cc(F)c(S(N)(=O)=NC(=O)Nc2c3c(nc4c2CCC4)CCC3)n1` (single isomer, unassigned) [Compound 1115a, (R) or (S)-1-(1,1-difluoroethyl)-4-fluoro-N′-((l,2,3,5,6,7-hexa-hydrodicyclopenta[b,e]pyridin-8-yl)carbamoyl)-1H-pyrazole-3-sulfonimidamide], for which, in test [1] (read-out: hTHP-1 IC50 in 10% FBS, hTHP-1 assay containing 10% fetal bovine serum, Table B5, listed as 846), the pIC50 is 6.00 to 6.70. `Cc1c(C(F)(F)F)nc2c(c1NC(=O)N=S(N)(=O)c1scc(C(C)(C)O)c1F)CCC2` (single isomer, unassigned) [Compound 1108b, (S) or (R)-3-fluoro-4-(2-hydroxypropan-2-yl)-N′-((3-methyl-2-(trifluoromethyl)-6,7-dihydro-5H-cyclopenta[b]pyridin-4-yl)carbamoyl)thiophene-2-sulfonimidamide]: in test [1] (read-out: hTHP-1 IC50 in 10% FBS, hTHP-1 assay containing 10% fetal bovine serum, Table B5, listed as 841), the pIC50 was 5.30 to 6.00. Regarding `CCn1cc(F)c(S(N)(=O)=NC(=O)Nc2c(C)c(C(F)(F)F)nc3c2CC(C)C3)n1` (single isomer, unassigned) [Compound 1101e, (R, S) or (R, R)-N′-((3,6-dimethyl-2-(trifluoromethyl)-6,7-dihydro-5H-cyclopenta[b]pyridin-4-yl)carbamoyl)-1-ethyl-4-fluoro-1H-pyrazole-3-sulfonimidamide], in test [1] (read-out: hTHP-1 IC50 in 10% FBS, hTHP-1 assay containing 10% fetal bovine serum, Table B5, listed as 825), the pIC50 is 7.40 to 8.10. For `CC(C)(O)c1cccc(S(N)(=O)=NC(=O)Nc2c3c(nc4c2CCC4)CCC3)c1` (single isomer, unassigned) [Compound 625b, (R) or (S)-N′-((1,2,3,5,6,7-hexahydrodicyclopenta [b,e]pyridin-8-yl)carbamoyl)-3-(2-hydroxypropan-2-yl)benzene-sulfonimidamide], in test [2], the negative-log IC50 (pIC50) was 5.30 to 6.00. As to `CCn1ccc([S@@](N)(=O)=NC(=O)Nc2c(C)c(C(F)(F)F)nc3c2CCC3)n1` [Compound 731a], in test [2], the pIC50 is 4.52 to 5.30.

Source of the values: patent US20230031406A1, “COMPOUNDS AND COMPOSITIONS FOR TREATING CONDITIONS ASSOCIATED WITH NLRP ACTIVITY” (Novartis AG, priority 2018, published 2023).
